Experimental findings from paper PMC13076199, “Convergent evolution of hexenal isomerases in Lepidoptera and plants” (Nature Ecology & Evolution, 2026) are described below.

The target of this experiment is T1, MsHi-1 (Manduca sexta, UniProt Z9A1Z6DDJ7).
T1 construct: coding region in pGEX-4T-1, N-terminal GST fusion, E. coli BL21 (DE3), GST Sepharose
The experiment can be described thus: Hi activity with and without added FAD, SPME-GC-qToF-MS. The format is biochemical. Conditions: 1 mM FAD, 0.2 mM Z3AL, 20 mM Tris-HCl pH 7.0, 20 µg BSA.

SMILES strings stand for the structures.

Consider `Cc1cc2nc3c(=O)[nH]c(=O)nc-3n(C[C@H](O)[C@H](O)[C@H](O)COP(=O)(O)OP(=O)(O)OC[C@H]3O[C@@H](n4cnc5c(N)ncnc54)[C@H](O)[C@@H]3O)c2cc1C` [flavin adenine dinucleotide], for which the “Hi activity with and without added FAD, SPME-GC-qToF-MS” value is “addition of FAD to enzymatic reactions moderately increased Hi activity across all tested homologues”.
